Earlier results in US20080167325A1, “VALACYCLOVIR COMPOSITIONS” (priority 2006, published 2008).

Assays:
[1] = system: cytochrome P450 enzymes
[2] = first-pass hepatic metabolism through enzymatic hydrolysis
[3] = compared with acyclovir

converted to the active compound, acyclovir, and L-valine [2]: ~99% | bioavailability [3]: much improved bioavailability
SMILES: CC(C)[C@H](N)C(=O)OCCOCn1cnc2c(=O)[nH]c(N)nc21 [Valacyclovir, L-valine, 2-[(2-amino-1,6-dihydro-6-oxo-9H-purin-9-yl)methoxy]ethyl ester]
metabolized by cytochrome P450 enzymes [1]: Neither valacyclovir nor acyclovir is metabolized
